Test results from patent US20250051286A1, “SMALL MOLECULE INHIBITORS OF PR3 AND HNE AND USES THEREOF” (ORIXA THERAPEUTICS LLC, priority 2021, published 2025).
No end group written: not given here.

How the values were obtained:
[1] = Treatment of PR3 positive ulcerative colitis patient (Example 7); type: in vivo, human; conditions: intravenously 5 mcg/minute for 1 hour, second dose after 24 hours; within two days
Method: In this example, a patient is admitted to a hospital with cough and fever (over 39.0° C.). About one month prior, they had presented with fever (over 39.0° C.), diarrhea and bloody bowel discharge. Upon admission, their hemoglobin was 8.9 g/dl and the serum C-reactive protein level was 6.8 mg/dl. […] Further, the patient tested positive for PR3-ANCA serological marker.
The treating physician administers a compound of Formula DCT-5A to the patient. The patient is administered the drug intravenously (i.e., 5 mcg/minute for 1 hour). The patient is administered a second dose after 24 hours. […] Thereafter, the patient is administered the drug orally (50 mg per day). The patient resumes the treatment and is periodically monitored for changes in their condition.

[2] = Treatment of Alpha-1 Antitrypsin Deficiency patient (Example 4); type: in vivo, human; conditions: orally 50 mg once per day; within two weeks
Text: In this example, a patient is diagnosed with AATD after presenting symptoms related to difficulty breathing and mild jaundice. […] The patient receives conventional therapy (e.g., bronchodilators, inhaled corticosteroids, pulmonary rehabilitation and supplemental oxygen). […] This treatment leads to some improvement, but the patient returns to the clinic seeking an alternative treatment.
The treating physician administers a compound of Formula DCT-5A to the patient: […]
The patient is administered the drug orally (i.e., 50 mg, once per day). Within two weeks, the signs/symptoms of AATD are resolved by about 80% and the patient appears in good health. The patient resumes the treatment and is periodically monitored for changes in their condition.

[3] = Treatment of Granulomatosis with Polyangiitis patient (Example 6); type: in vivo, human; conditions: GPA patient; orally 50 mg once per day; within one week
Method: In this example, a patient complains of several symptoms including sinus pain, cough, fever, joint aches, blood in urine, and hearing loss. A physician diagnosis them with GPA after analyzing diagnostic markers.
The treating physician anticipates further complications such as acute respiratory distress syndrome (ARDS) and (multiple) organ failure. To prevent this, the treating physician administers a compound of Formula DCT-5A to the patient. The patient is administered the drug orally (i.e., 50 mg, once per day). Within one week, the signs/symptoms of AATD are resolved by about 90% and the patient appears in good health. The patient resumes the treatment and is periodically monitored for changes in their condition.

[4] = Treatment of severe inflammation, post-surgery patient (Example 5); type: in vivo, human; conditions: intravenously 5 mcg/minute for 1 hour, second dose after 24 hours; within two days
Method: In this example, a patient is recovering from surgery following a traumatic vehicle accident. The treating physician anticipates further complications such as acute respiratory distress syndrome (ARDS) and (multiple) organ failure. To prevent this, the treating physician administers a compound of Formula DCT-5A to the patient. The patient is administered the drug intravenously (i.e., 5 mcg/minute for 1 hour). The patient is administered a second dose after 24 hours. […] The patient resumes the treatment and is periodically monitored for changes in their condition.

[5] = CF patients in an exacerbated state of inflammation; cited from earlier work
[6] = DSS-induced mouse model of UC; cited from earlier work

Molecule: N=C(N)NCCC(CCCc1ccc(F)cc1)C(=O)NN1CN(CCCc2ccccc2)[C@H](Cc2ccc(O)cc2)C1=O (stereo partly shown) [DCT-5A]
- clinical course of the patient [1]: shows signs of improvement
- signs/symptoms of AATD resolved [2]: about 80%
- signs/symptoms of AATD resolved [3]: about 90%
- clinical course of the patient [4]: shows signs of improvement

Molecule: A1PI: α1-proteinase inhibitor, a serpin; endogenous inhibitor of neutrophilic serine proteinases
- effect on IL6, IL1β and NE activity [5]: decrease

Molecule: elafin: polypeptide inhibitor of some peptidases and elastases; inhibits HNE, PR3 and pancreatic elastase (AQEPVKGPVSTKPGSCPIILIRCAMLNPPNRCLKDTDCPGIKKCCEGSCGMACFVPQ; ends and bridges not checked; cysteine pairing not given here; UniProt P19957 61-117, looked up)
- reducing inflammation [6]: successful in reducing inflammation in a dose-dependent manner

B1: SLPI: locally produced chelonianin; inhibits HNE but not PR3 (protein, UniProt P03973 26-132, looked up)
Antileukoproteinase: SGKSFKAGVCPPKKSAQCLRYKKPECQSDWQCPGKKRCCPDTCGIKCLDPVDTPNPTRRKPGKCPVTYGQCLMLNPPNFCEMDGQCKRDLKCCMGMCGKSCVSPVKA
- reducing inflammation [6]: also successful
